Entries after “also recorded” stand apart in the source; their conditions may differ.
Experiments:
[1] = system: Kupffer cells; experiment: Gadolinium chloride treatment after partial hepatectomy (PHx) in Casp8F/-:Alb-Cre mice; assay type: in vivo; settings: 1/3 PHx, 10 mg/kg i.p. on days 10 and 12 after PHx
Procedure: (iii) Partial Hepatectomy and Gadolinium Chloride Administration. Age-matched Casp8^F/−: Alb-Cre mice and Casp8^F/+: Alb-Cre mice were lightly anesthetized with intraperitoneally (i.p.) administered xylazine […] (Chanelle Pharmaceuticals Manufacturing, Loughrea, Galway, Ireland) and ketamine […] (Fort Dodge Animal Health, Fort Dodge, Iowa). It was performed ‘one-third’ (30%) PHx by excising the median lobe of the liver, and ‘two-thirds’ (70%) PHx by excising the median, left, and right upper lobes as described (Higgins et al., 1931 and Greene et al., 2003). Mice were imaged before PHx and afterwards on days 0-56 (every other day during the first week and weekly from then on). On days 10 and 12 after PHx the mice were injected i.p. with gadolinium chloride (Sigma-Aldrich, St. Louis, Mo.) in saline at a dosage of 10 mg/kg.
(iv) MRI Analysis Technique. Magnetic resonance imaging (MRI) experiments were performed using a horizontal 4.7 T Biospec spectrometer (Bruker Medical, Ettlingen, Germany) with a 4.2-cm birdcage coil. Mice were anesthetized (with pentobarbital 30 mg/kg, i.p.) and placed supine with the liver located at the center of the coil. Liver volume was determined from multi-slice coronal and axial T1-weighted spin echo images (repetition time=400 ms; echo time=18 ms; slice thickness=1 mm). In brief, the liver boundary visualized in each slice was outlined using image-processing software (NIH Image). […] The total liver volume was calculated as the summed area of all slices, multiplied by the slice thickness. For each mouse the liver volume was expressed as a percentage of the preoperative liver volume. […]
Cells expressing F4/80 were detected similarly, using rat anti-mouse F4/80 antibody (Serotec Oxford, UK), except that for antigen retrieval the paraffin sections were treated for 3 minutes at room temperature with a solution containing 20 mM Tris (pH 7.5), 0.1% trypsin, and 0.1% calcium chloride. The macrophage content of the livers was determined by quantifying the F4/80 positive areas in the slides using the ImageJ 1.37r software.

[2] = system: Kupffer cells; settings: stated as a known fact, no experiment of the patent described; cited from earlier work

[Cl][Gd]([Cl])[Cl] [gadolinium chloride]
late (delayed) hepatocyte proliferation, anti-Ki67 stained nuclei in 10 high-power fields ([1]; 14th day after PHx, 10 mg/kg): practically wiped out the increase in hepatocyte proliferation; also recorded: arrest of the delayed hepatocyte proliferation | liver volume / excessive increase in liver size (hepatomegaly), MRI scans ([1]; 14th day after PHx, 10 mg/kg): curtailed; also recorded: prevention of hepatomegaly | inflammatory cells (macrophages, anti-F4/80 staining) accumulated in the liver ([1]; liver examined 14 days after PHx): substantially decreasing the inflammatory cells that had accumulated | hepatocyte proliferation facilitated early after PHx [2]: does not decrease, but rather is enhanced
